According to the supplement of paper PMC10307832:

How the values were obtained:
Assay in all cases: relative viability (nuclei count vs DMSO), 5 days (fraction); higher = more cells survive
[1] = compound: CC[C@H](Nc1ncnc2[nH]cnc12)c1nc2cccc(F)c2c(=O)n1-c1ccccc1 [Idelalisib] + CC1(C)CCC(c2ccc(Cl)cc2)=C(CN2CCN(c3ccc(C(=O)NS(=O)(=O)c4ccc(N[C@H](CCN5CCOCC5)CSc5ccccc5)c(S(=O)(=O)C(F)(F)F)c4)cc3)CC2)C1 [Navitoclax] (partner 0.5 µM)
Summary of the method: (§1)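 Lung cancer cell lines, seeded in 1536-well plates, were treated the following day by pin tool with a single drug or with five library-drug doses (not always all listed) in √10 steps on top of a fixed anchor-drug dose. Cells were fixed and nuclei stained in one step after 5 days, and nuclei were counted. Relative viability is the nuclei count for treated wells divided by that for vehicle wells, reported as medians of duplicate plates.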

[2] = compound: CC[C@H](Nc1ncnc2[nH]cnc12)c1nc2cccc(F)c2c(=O)n1-c1ccccc1 [Idelalisib] + Nc1nc2[nH]cc(CCc3ccc(C(=O)N[C@@H](CCC(=O)O)C(=O)O)cc3)c2c(=O)[nH]1 [Pemetrexed] (partner 0.2 µM)
Summary of the method: as §1

[3] = compound: CC[C@H](Nc1ncnc2[nH]cnc12)c1nc2cccc(F)c2c(=O)n1-c1ccccc1 [Idelalisib] + O=C(c1cc(Cc2n[nH]c(=O)c3ccccc23)ccc1F)N1CCN(C(=O)C2CC2)CC1 [Olaparib] (partner 8 µM)
Summary of the method: as §1

[4] = compound: Nc1nc2[nH]cc(CCc3ccc(C(=O)N[C@@H](CCC(=O)O)C(=O)O)cc3)c2c(=O)[nH]1 [Pemetrexed] + Nc1ncn([C@H]2C[C@H](O)[C@@H](CO)O2)c(=O)n1 [Decitabine] (partner 2 µM)
Summary of the method: as §1

Cell Line	relative viability ([1]; first compound 0.04 µM)	relative viability ([1]; first compound 0.1265 µM)	relative viability ([1]; first compound 0.4 µM)	relative viability ([1]; first compound 1.265 µM)	relative viability ([1]; first compound 4 µM)	relative viability ([2]; first compound 0.04 µM)	relative viability ([2]; first compound 0.1265 µM)	relative viability ([2]; first compound 0.4 µM)	relative viability ([2]; first compound 1.265 µM)	relative viability ([2]; first compound 4 µM)	relative viability ([3]; first compound 0.04 µM)	relative viability ([3]; first compound 0.1265 µM)	relative viability ([3]; first compound 0.4 µM)	relative viability ([3]; first compound 1.265 µM)	relative viability ([3]; first compound 4 µM)	relative viability ([4]; first compound 0.002 µM)	relative viability ([4]; first compound 0.006325 µM)	relative viability ([4]; first compound 0.02 µM)	relative viability ([4]; first compound 0.06325 µM)	relative viability ([4]; first compound 0.2 µM)
201T	1.17	1.13	1.25	1.24	1.1	0.352	0.318	0.357	0.314	0.32	0.825	0.836	0.837	0.821	0.839	0.712	0.803	0.808	0.849	0.85
NCI-H1437	0.956	1.13	1.08	1.17	1.11	0.34	0.315	0.311	0.317	0.268	0.618	0.636	0.634	0.658	0.607	0.528	0.577	0.555	0.443	0.359
A-427	0.939	0.91	1.01	1.06	0.811	1.11	1	0.925	0.998	0.955	0.853	0.788	0.712	0.785	0.711	0.585	0.537	0.545	0.572	0.544
HCC-366	1.11	1.11	1.01	1.01	0.97	0.178	0.163	0.214	0.138	0.21	0.386	0.412	0.348	0.305	0.315	0.331	0.387	0.346	0.329	0.211
BEN	0.0556	0.0685	0.0581	0.0746	0.0521	0.824	0.709	0.895	0.736	0.724	1.02	0.955	1.02	1.12	0.847	0.657	0.767	0.813	0.668	0.719
NCI-H2347	0.89	0.667	0.737	0.767	0.618	0.436	0.423	0.436	0.452	0.402	0.591	0.659	0.528	0.644	0.464	0.604	0.594	0.657	0.619	0.49
NCI-H1975	1.1	1.08	1.12	1.06	0.692	0.292	0.334	0.29	0.276	0.303	0.787	0.835	0.741	0.778	0.615	0.322	0.403	0.378	0.291	0.223
NCI-H2126	0.896	0.861	0.813	0.805	0.789	0.848	0.739	0.523	0.769	0.619	0.933	0.916	0.834	0.972	0.898	0.55	0.588	0.569	0.608	0.567
NCI-H2087	0.885	0.938	0.98	1.03	0.823	0.742	0.671	0.657	0.637	0.695	0.498	0.628	0.517	0.658	0.591	0.268	0.237	0.332	0.238	0.262
